From ChEMBL document CHEMBL3875175, “Multi-targeting exploration of new 2-aminothiazolyl quinolones: Synthesis, antimicrobial evaluation, interaction with DNA, combination with topoisomerase IV and penetrability into cells” (Eur J Med Chem, 2016) come the findings set out here.

The structures appear in SMILES notation. ≈ marks a conversion by molar mass, not a printed value. Calls of active or inactive are those of the source. The calls are words filed in the database; no cut-off is given here.

Data set [1] concerns Staphylococcus aureus. Description: Antibacterial activity against methicillin-resistant Staphylococcus aureus N315 after 24 hrs by two fold serial dilution method. As to conditions: N315, 24 h. It counts as functional.
In data set [2] the test system is Staphylococcus aureus. Description: Antibacterial activity against Staphylococcus aureus ATCC 25923 after 24 hrs by two fold serial dilution method. The format is functional. The settings on record: ATCC 25923, 24 h.
The subject of another data set is Bacillus spizizenii. The data set can be described thus: Antibacterial activity against Bacillus subtilis ATCC 6633 after 24 hrs by two fold serial dilution method. It counts as functional. The settings on record: ATCC 6633, 24 h.
The subject of the next data set is Micrococcus luteus. The data set can be described thus: Antibacterial activity against Micrococcus luteus ATCC 4698 after 24 hrs by two fold serial dilution method. It counts as functional. The settings on record: NCTC 2665, 24 h.
The test system of data set [3] is Escherichia coli. The data set can be described thus: Antibacterial activity against Escherichia coli DH52 after 24 hrs by two fold serial dilution method. It counts as functional. The settings on record: DH52, 24 h.
Data set [4] relates to Escherichia coli. Description: Antibacterial activity against Escherichia coli JM109 after 24 hrs by two fold serial dilution method. As to conditions: JM109, 24 h. The format is functional.
For data set [5], the system named is Shigella dysenteriae. The data set can be described thus: Antibacterial activity against Shigella dysenteriae after 24 hrs by two fold serial dilution method. It counts as functional.
Another data set relates to Pseudomonas aeruginosa. Description: Antibacterial activity against Pseudomonas aeruginosa ATCC 27853 after 24 hrs by two fold serial dilution method. It counts as functional. As to conditions: ATCC 27853, 24 h.
For the next data set, the system named is Proteus vulgaris. Description: Antibacterial activity against Bacillus proteus ATCC 13315 after 24 hrs by two fold serial dilution method. It counts as functional. The settings on record: ATCC 13315, 24 h.
For data set [6], the system named is Salmonella typhi. Description: Antibacterial activity against Bacillus typhi after 24 hrs by two fold serial dilution method. It counts as functional, Salmonella enterica subsp. enterica serovar Typhi. The settings on record: Salmonella enterica.
Data set [7] concerns Salmonella typhi. The data set can be described thus: Potency index, ratio of chloromycin MIC to compound MIC for Bacillus typhi. It counts as functional, Salmonella enterica subsp. enterica serovar Typhi.
For data set [8], the system named is Salmonella typhi. The data set can be described thus: Potency index, ratio of norfloxacin MIC to compound MIC for Bacillus typhi. It counts as functional, Salmonella enterica subsp. enterica serovar Typhi.
Another data set concerns Candida albicans. The data set can be described thus: Antifungal activity against Candida albicans ATCC 76615 after 24 hrs by two fold serial dilution method. The format is functional. As to conditions: ATCC 76615, 24 h.
Data set [9] can be described thus: Antifungal activity against Candida mycoderma after 24 hrs by two fold serial dilution method. The format is functional. The settings on record: Pichia norvegensis.
Data set [10] can be described thus: Antifungal activity against Candida utilis after 24 hrs by two fold serial dilution method. It counts as functional. The settings on record: Cyberlindnera jadinii.
For data set [11], the system named is Aspergillus flavus. The data set can be described thus: Antifungal activity against Aspergillus flavus after 24 hrs by two fold serial dilution method. The format is functional.
The subject of a further data set is Saccharomyces cerevisiae. Description: Antifungal activity against Beer yeast after 24 hrs by two fold serial dilution method. It counts as functional.
Data set [12] relates to Aspergillus flavus. Description: Potency index, ratio of fluconazole MIC80 to compound MIC80 for Aspergillus flavus. The format is functional.
The subject of data set [13] is Staphylococcus aureus. The data set can be described thus: Antibacterial activity against methicillin-resistant Staphylococcus aureus N315 after 15 days by serial passage resistance development assay. The format is functional.
The test system of data set [14] is Staphylococcus aureus. Description: Bactericidal activity against methicillin-resistant Staphylococcus aureus N315 assessed as log reduction in bacterial count at 4 times MIC up to 1 hr by time-kill kinetic assay. It counts as functional.
Data set [15] can be described thus: Cytotoxicity against mouse L929 cells assessed as reduction in cell viability after 48 hrs by MTT assay. It counts as toxicity.
The test system of data set [16] is Staphylococcus aureus. The data set can be described thus: Induction of membrane permeabilization in methicillin-resistant Staphylococcus aureus N315 at 12 times MIC measured for 2 hrs by propidium iodide staining based fluorescence assay. It counts as functional.
For data set [17], the system named is Salmonella typhi. The data set can be described thus: Induction of membrane permeabilization in Bacillus typhi at 12 times MIC measured for 2 hrs by propidium iodide staining based fluorescence assay. The format is functional. As to conditions: Salmonella enterica subsp. enterica serovar Typhi.
Data set [18] is filed under the species Bos taurus. The data set can be described thus: Binding affinity to calf thymus DNA assessed as hypochromism up to 9 x 10^-5mol/L by UV-Visible spectroscopic method.
For data set [19], the species on record is Bos taurus. The data set can be described thus: Binding affinity to calf thymus DNA by UV-Visible spectroscopic method.
The species entered for data set [20] is Bos taurus. Description: Binding affinity to calf thymus DNA assessed as DNA intercalation up to 1.75 x 10^-5mol/L by neutral red dye based UV-Visible spectroscopic method.
For data set [21], the system named is Shigella dysenteriae. The data set can be described thus: Potency index, ratio of chloromycin MIC to compound MIC for Shigella dysenteriae. It counts as functional.
Data set [22] relates to Shigella dysenteriae. The data set can be described thus: Potency index, ratio of norfloxacin MIC to compound MIC for Shigella dysenteriae. It counts as functional.

Regarding `C#CCn1cc(-c2cnc(N)s2)c(=O)c2cc(F)cc(F)c21`, the MIC is 8 mg/L (≈ 25.2 µM) in the data set with Staphylococcus aureus [1]; 8 mg/L (≈ 25.2 µM) with Staphylococcus aureus [2]; 16 mg/L (≈ 50.4 µM) with Bacillus spizizenii; 32 mg/L (≈ 101 µM) in the data set with Micrococcus luteus; 16 mg/L (≈ 50.4 µM) in the data set with Escherichia coli [3]; 32 mg/L (≈ 101 µM) in the data set on Escherichia coli [4]. The MIC against Shigella dysenteriae [5] came out at 8 mg/L (≈ 25.2 µM); with Pseudomonas aeruginosa, 16 mg/L (≈ 50.4 µM); against Proteus vulgaris it was 32 mg/L (≈ 101 µM); against Salmonella typhi [6], 1 mg/L (≈ 3.15 µM). Besides, the Ratio in the data set on Salmonella typhi [7] came to 32; in the data set on Salmonella typhi [8], 4; with Aspergillus flavus [12], 32. Further, the MIC80 against Candida albicans was 16 mg/L (≈ 50.4 µM); in data set [9], 8 mg/L (≈ 25.2 µM); in [10], 32 mg/L (≈ 101 µM); against Aspergillus flavus [11] it was 8 mg/L (≈ 25.2 µM); with Saccharomyces cerevisiae, 8 mg/L (≈ 25.2 µM). Also, the result in the data set on Staphylococcus aureus [13], in the data set on Staphylococcus aureus [16], in the data set on Salmonella typhi [17], in the data set filed under Bos taurus [18] and in the data set listed under Bos taurus [20] was Active. Moreover, the Activity in the data set on Staphylococcus aureus [14] is given as 3 log10CFU/ml. For the same compound, the IC50 at 48 h in data set [15] turned out to be 289 mg/L (≈ 911 µM). Also, the K in the data set listed under Bos taurus [19] worked out at 0.538 ×10⁴ L/mol.
As for `CCCn1cc(-c2cnc(N)s2)c(=O)c2cc(F)cc(F)c21`, the minimal inhibitory concentration (MIC) against Staphylococcus aureus [1] amounted to 32 mg/L (≈ 99.6 µM); with Staphylococcus aureus [2], 16 mg/L (≈ 49.8 µM); against Bacillus spizizenii, 32 mg/L (≈ 99.6 µM); against Micrococcus luteus, 16 mg/L (≈ 49.8 µM); against Escherichia coli [3] it was 64 mg/L (≈ 199 µM); with Escherichia coli [4] it was 64 mg/L (≈ 199 µM). The MIC in the data set on Shigella dysenteriae [5] worked out at 4 mg/L (≈ 12.4 µM); with Pseudomonas aeruginosa, 16 mg/L (≈ 49.8 µM); with Proteus vulgaris it was 64 mg/L (≈ 199 µM); against Salmonella typhi [6], 16 mg/L (≈ 49.8 µM). The Ratio in the data set on Shigella dysenteriae [21] and in the data set on Shigella dysenteriae [22] was 4 throughout. Moreover, the MIC80 came out at 32 mg/L (≈ 99.6 µM) in the data set on Candida albicans; 32 mg/L (≈ 99.6 µM) in data set [9]; 64 mg/L (≈ 199 µM) in data set [10]; 32 mg/L (≈ 99.6 µM) against Aspergillus flavus [11]; 16 mg/L (≈ 49.8 µM) against Saccharomyces cerevisiae.
Turning to `COc1ccc(Cn2cc(-c3cnc(N)s3)c(=O)c3cc(F)cc(F)c32)cc1`, the MIC against Staphylococcus aureus [1] was found to be 256 mg/L (≈ 641 µM); in the data set on Staphylococcus aureus [2] it was 256 mg/L (≈ 641 µM); against Bacillus spizizenii, 128 mg/L (≈ 320 µM); in the data set with Micrococcus luteus it was 64 mg/L (≈ 160 µM); with Escherichia coli [3], 64 mg/L (≈ 160 µM); in the data set on Escherichia coli [4] it was 128 mg/L (≈ 320 µM). Moreover, the MIC was 128 mg/L (≈ 320 µM) in the data set with Shigella dysenteriae [5], 64 mg/L (≈ 160 µM) in the data set on Pseudomonas aeruginosa, 256 mg/L (≈ 641 µM) against Proteus vulgaris and 64 mg/L (≈ 160 µM) against Salmonella typhi [6]. Moreover, the MIC80 in the data set with Candida albicans was 256 mg/L (≈ 641 µM); in data set [9] it was 256 mg/L (≈ 641 µM); in [10], 512 mg/L (≈ 1280 µM); in the data set on Aspergillus flavus [11] it was 64 mg/L (≈ 160 µM); against Saccharomyces cerevisiae it was 64 mg/L (≈ 160 µM).
For the compound `CCCCCCCCCCCCn1cc(-c2cnc(N)s2)c(=O)c2cc(F)cc(F)c21`, the MIC in the data set on Staphylococcus aureus [1] was 128 mg/L (≈ 286 µM); in the data set on Staphylococcus aureus [2] it was 512 mg/L (≈ 1140 µM); against Bacillus spizizenii, 64 mg/L (≈ 143 µM); in the data set with Micrococcus luteus, 128 mg/L (≈ 286 µM); with Escherichia coli [3] it was 256 mg/L (≈ 572 µM); in the data set with Escherichia coli [4], 128 mg/L (≈ 286 µM). Further, the MIC was 128 mg/L (≈ 286 µM) in the data set with Shigella dysenteriae [5], 32 mg/L (≈ 71.5 µM) in the data set on Pseudomonas aeruginosa, 256 mg/L (≈ 572 µM) in the data set on Proteus vulgaris and 64 mg/L (≈ 143 µM) in the data set with Salmonella typhi [6]. The MIC80 against Candida albicans was 128 mg/L (≈ 286 µM); in [9] it was 32 mg/L (≈ 71.5 µM); in [10], 64 mg/L (≈ 143 µM); against Aspergillus flavus [11], 256 mg/L (≈ 572 µM); with Saccharomyces cerevisiae it was 128 mg/L (≈ 286 µM).
`Nc1ncc(-c2cn(Cc3ccc(Cl)cc3)c3c(F)cc(F)cc3c2=O)s1`: the MIC is 64 mg/L (≈ 158 µM) in the data set with Staphylococcus aureus [1]; 128 mg/L (≈ 317 µM) against Staphylococcus aureus [2]; 256 mg/L (≈ 634 µM) against Bacillus spizizenii; 64 mg/L (≈ 158 µM) in the data set on Micrococcus luteus; 64 mg/L (≈ 158 µM) in the data set with Escherichia coli [3]; 128 mg/L (≈ 317 µM) against Escherichia coli [4]. Moreover, the MIC in the data set with Shigella dysenteriae [5] was found to be 16 mg/L (≈ 39.6 µM); in the data set on Pseudomonas aeruginosa, 128 mg/L (≈ 317 µM); against Proteus vulgaris it was 32 mg/L (≈ 79.2 µM); in the data set on Salmonella typhi [6] it was 32 mg/L (≈ 79.2 µM). The MIC80 came to 512 mg/L (≈ 1270 µM) in the data set on Candida albicans; 256 mg/L (≈ 634 µM) in data set [9]; 256 mg/L (≈ 634 µM) in data set [10]; 64 mg/L (≈ 158 µM) with Aspergillus flavus [11]; 128 mg/L (≈ 317 µM) in the data set on Saccharomyces cerevisiae.
